Experiments:
Format in all cases: binding
Sortase B (SrtBΔ30, WT) = molecular target: T1, Sortase B (SrtBΔ30, WT) (Staphylococcus aureus, UniProt Q2FZE3); experiment: fluorescence spectroscopy quenching (association constant KA); also FRET peptide-cleavage inhibition of the purified enzyme, IC50 […]
T1 construct: gene srtB; SrtBΔ30

Sortase B (SrtBΔ30) [1] = molecular target: T2, Sortase B (SrtBΔ30) (Staphylococcus aureus, UniProt Q2FZE3, R115A); experiment: fluorescence spectroscopy quenching (association constant KA)
T2 construct: gene srtB; SrtBΔ30
T2 sequence (Q2FZE3 31-244 R115A): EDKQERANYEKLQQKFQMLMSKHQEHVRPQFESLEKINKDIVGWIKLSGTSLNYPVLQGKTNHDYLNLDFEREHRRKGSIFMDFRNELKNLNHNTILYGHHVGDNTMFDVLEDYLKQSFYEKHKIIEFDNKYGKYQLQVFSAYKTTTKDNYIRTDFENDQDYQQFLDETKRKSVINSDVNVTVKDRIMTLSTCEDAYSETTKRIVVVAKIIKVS
Text: (§1) fluorescence spectroscopy quenching (association constant KA) on Sortase B (SrtBΔ30) | the binding constants (KA) of the ligand with the mutant proteins were lower

Sortase B (SrtBΔ30) [2] = molecular target: T3, Sortase B (SrtBΔ30) (Staphylococcus aureus, UniProt Q2FZE3, N116A); experiment: as above
T3 construct: gene srtB; SrtBΔ30
T3 sequence (Q2FZE3 31-244 N116A): T2 sequence (Q2FZE3 31-244 R115A)
Text: as §1

Sortase B (SrtBΔ30) [3] = molecular target: T4, Sortase B (SrtBΔ30) (Staphylococcus aureus, UniProt Q2FZE3, I182A); experiment: as above
T4 construct: gene srtB; SrtBΔ30
T4 sequence (Q2FZE3 31-244 I182A): T2 sequence (Q2FZE3 31-244 R115A)
Text: as §1

With `c1c2c(cc3c1OCO3)-c1cc3ccc4c(c3c[n+]1CC2)OCO4` [coptisine] the Kd (Sortase B (SrtBΔ30, WT)) was 7.35 µM, the Kd (Sortase B (SrtBΔ30) [1]) was 12 µM and the Kd (Sortase B (SrtBΔ30) [2]) was 10.9 µM. For the same compound, the Kd (Sortase B (SrtBΔ30) [3]) was 12.8 µM.

— article PMC6017250, “Novel Inhibitor Discovery of Staphylococcus aureus Sortase B and the Mechanism Confirmation via Molecular Modeling” (Molecules : A Journal of Synthetic Chemistry and Natural …, 2018)
